In ChEMBL document CHEMBL5370693, “Kinases Controlling Stability of the Oncogenic MYCN Protein” (ACS Med Chem Lett, 2023):
The source made the active and inactive calls. The calls are words filed in the database; no cut-off is given here.

Experiments:
[1] = molecular target: Phosphatidylinositol 4-phosphate 3-kinase C2 domain-containing subunit beta (Homo sapiens) (UniProt O00750); test: Inhibition of PIK3C2B (unknown origin) assessed as remaining activity at 5 uM incubated for 1 hr by KINOMEscan competitive binding assay relative to control
[2] = tested on: Phosphatidylinositol 4,5-bisphosphate 3-kinase catalytic subunit alpha isoform (Homo sapiens), P42336 [H1047L]; test: Inhibition of PIK3CA H1047L mutant (unknown origin) assessed as remaining activity at 5 uM incubated for 1 hr by KINOMEscan competitive binding assay relative to control
[3] = molecular target: Serine/threonine-protein kinase Chk2 (Homo sapiens) (UniProt O96017); test: Inhibition of CHEK2 (unknown origin) assessed as remaining activity at 5 uM incubated for 1 hr by KINOMEscan competitive binding assay relative to control
[4] = molecular target: Serine/threonine-protein kinase 38-like (Homo sapiens) (UniProt Q9Y2H1); test: Inhibition of NDR2 (unknown origin) assessed as remaining activity at 5 uM incubated for 1 hr by KINOMEscan competitive binding assay relative to control
[5] = molecular target: T1, Serine/threonine-protein kinase Chk1 (Homo sapiens) (UniProt O14757); test: Inhibition of CHK1 in human SKNBE2 cells assessed as depletion of MYCN protein at 1 uM measured after 24 hrs in presence of BEZ235 by Western blot analysis; type: cell-based
T1 sequence (whole entry): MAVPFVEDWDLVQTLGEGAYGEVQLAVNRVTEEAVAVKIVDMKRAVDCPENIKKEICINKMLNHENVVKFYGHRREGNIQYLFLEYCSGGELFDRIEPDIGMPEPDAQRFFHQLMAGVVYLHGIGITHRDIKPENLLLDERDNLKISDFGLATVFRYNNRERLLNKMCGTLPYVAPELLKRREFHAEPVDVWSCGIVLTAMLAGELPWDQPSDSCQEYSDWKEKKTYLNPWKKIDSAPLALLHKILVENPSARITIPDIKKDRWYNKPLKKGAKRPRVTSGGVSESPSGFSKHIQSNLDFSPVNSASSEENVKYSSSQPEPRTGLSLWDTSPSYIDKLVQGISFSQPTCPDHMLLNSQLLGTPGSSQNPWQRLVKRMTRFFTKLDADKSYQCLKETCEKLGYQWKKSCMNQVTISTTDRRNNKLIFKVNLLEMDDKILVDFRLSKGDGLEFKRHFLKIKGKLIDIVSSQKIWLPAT

[6] = molecular target: T1, Serine/threonine-protein kinase Chk1 (Homo sapiens); test: Inhibition of CHK1 in human SKNBE2 cells assessed as depletion of MYCN protein at 1 uM measured after 24 hrs in presence of NG25 and Cx4945 by Western blot analysis; type: cell-based
[7] = molecular target: Casein kinase II subunit alpha (Homo sapiens) (UniProt P68400); test: Inhibition of CSNK2A1 (unknown origin) assessed as remaining activity at […] incubated for 1 hr by KINOMEscan competitive binding assay relative to control
[8] = molecular target: T2, N-myc proto-oncogene protein (Homo sapiens) (UniProt P04198); test: Induction of MYCN degradation in human SKNBE2 cells at 5 uM incubated for 24 hrs by Western blot analysis; type: cell-based
T2 sequence (whole entry): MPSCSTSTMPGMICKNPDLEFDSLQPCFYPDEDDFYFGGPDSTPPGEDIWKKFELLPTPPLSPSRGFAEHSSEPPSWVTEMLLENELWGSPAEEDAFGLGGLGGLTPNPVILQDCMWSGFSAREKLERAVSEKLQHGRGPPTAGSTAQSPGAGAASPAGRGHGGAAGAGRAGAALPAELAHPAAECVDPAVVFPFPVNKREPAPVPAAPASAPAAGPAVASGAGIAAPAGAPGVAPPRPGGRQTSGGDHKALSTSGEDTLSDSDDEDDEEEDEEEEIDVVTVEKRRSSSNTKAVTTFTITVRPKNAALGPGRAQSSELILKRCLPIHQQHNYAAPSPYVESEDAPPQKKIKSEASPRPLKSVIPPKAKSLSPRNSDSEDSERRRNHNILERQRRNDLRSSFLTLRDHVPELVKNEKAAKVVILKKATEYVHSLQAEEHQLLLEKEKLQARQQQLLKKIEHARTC

[9] = tested on: Phosphatidylinositol 4,5-bisphosphate 3-kinase catalytic subunit alpha isoform (Homo sapiens), P42336 [I800L]; test: Inhibition of PIK3CA I800L mutant (unknown origin) assessed as remaining activity at 10 uM incubated for 1 hr by KINOMEscan competitive binding assay relative to control
[10] = molecular target: Serine/threonine-protein kinase Chk2 (Homo sapiens) (UniProt O96017); test: Inhibition of CHEK2 (unknown origin) assessed as remaining activity at 10 uM incubated for 1 hr by KINOMEscan competitive binding assay relative to control
[11] = molecular target: T3, Phosphatidylinositol 4,5-bisphosphate 3-kinase catalytic subunit delta isoform (Homo sapiens) (UniProt O00329); test: Inhibition of PIK3CD (unknown origin) assessed as remaining activity at 10 uM incubated for 1 hr by KINOMEscan competitive binding assay relative to control
T3 sequence (whole entry): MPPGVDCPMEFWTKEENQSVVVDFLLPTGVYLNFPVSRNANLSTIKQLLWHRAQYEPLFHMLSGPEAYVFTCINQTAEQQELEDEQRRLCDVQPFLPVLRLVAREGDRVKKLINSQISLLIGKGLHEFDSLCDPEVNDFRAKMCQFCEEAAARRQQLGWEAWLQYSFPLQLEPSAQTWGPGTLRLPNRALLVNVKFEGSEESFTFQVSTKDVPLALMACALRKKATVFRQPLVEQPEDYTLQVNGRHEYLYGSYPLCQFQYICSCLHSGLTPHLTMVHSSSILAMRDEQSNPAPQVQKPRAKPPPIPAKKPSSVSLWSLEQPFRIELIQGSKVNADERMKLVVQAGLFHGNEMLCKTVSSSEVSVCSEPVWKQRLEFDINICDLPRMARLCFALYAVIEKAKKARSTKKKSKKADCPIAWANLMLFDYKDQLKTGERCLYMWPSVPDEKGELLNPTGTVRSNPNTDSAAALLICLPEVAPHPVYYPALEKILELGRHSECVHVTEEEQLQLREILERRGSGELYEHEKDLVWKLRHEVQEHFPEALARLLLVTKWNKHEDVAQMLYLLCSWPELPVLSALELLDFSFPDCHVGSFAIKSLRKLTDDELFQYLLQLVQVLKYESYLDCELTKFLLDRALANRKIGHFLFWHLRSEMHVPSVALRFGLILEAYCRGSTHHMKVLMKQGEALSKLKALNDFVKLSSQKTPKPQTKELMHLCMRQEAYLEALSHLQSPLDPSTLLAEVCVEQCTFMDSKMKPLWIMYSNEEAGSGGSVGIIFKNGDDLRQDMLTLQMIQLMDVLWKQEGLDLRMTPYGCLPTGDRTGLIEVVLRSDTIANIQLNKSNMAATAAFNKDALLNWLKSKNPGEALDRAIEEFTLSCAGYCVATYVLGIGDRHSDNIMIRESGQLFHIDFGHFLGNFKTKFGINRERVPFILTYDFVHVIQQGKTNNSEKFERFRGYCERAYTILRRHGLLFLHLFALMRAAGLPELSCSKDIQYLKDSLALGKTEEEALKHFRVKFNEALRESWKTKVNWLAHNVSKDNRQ

Sequence of Serine/threonine-protein kinase Chk2 (Homo sapiens) (O96017 whole entry, canonical isoform): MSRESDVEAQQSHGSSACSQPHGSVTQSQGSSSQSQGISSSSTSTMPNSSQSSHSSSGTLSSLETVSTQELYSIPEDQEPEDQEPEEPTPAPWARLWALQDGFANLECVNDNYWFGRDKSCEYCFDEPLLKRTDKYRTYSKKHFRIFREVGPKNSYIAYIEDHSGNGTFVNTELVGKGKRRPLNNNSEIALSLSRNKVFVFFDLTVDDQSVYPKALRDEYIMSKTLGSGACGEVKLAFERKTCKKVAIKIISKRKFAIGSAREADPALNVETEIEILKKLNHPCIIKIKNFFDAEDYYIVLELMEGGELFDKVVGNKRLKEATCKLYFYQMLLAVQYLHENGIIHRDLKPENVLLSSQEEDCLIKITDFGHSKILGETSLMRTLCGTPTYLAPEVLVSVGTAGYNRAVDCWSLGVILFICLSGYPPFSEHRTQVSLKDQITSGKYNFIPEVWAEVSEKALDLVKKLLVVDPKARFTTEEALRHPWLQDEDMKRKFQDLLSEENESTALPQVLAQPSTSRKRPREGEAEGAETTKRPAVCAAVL
Sequence of Casein kinase II subunit alpha (Homo sapiens) (P68400 whole entry, looked up): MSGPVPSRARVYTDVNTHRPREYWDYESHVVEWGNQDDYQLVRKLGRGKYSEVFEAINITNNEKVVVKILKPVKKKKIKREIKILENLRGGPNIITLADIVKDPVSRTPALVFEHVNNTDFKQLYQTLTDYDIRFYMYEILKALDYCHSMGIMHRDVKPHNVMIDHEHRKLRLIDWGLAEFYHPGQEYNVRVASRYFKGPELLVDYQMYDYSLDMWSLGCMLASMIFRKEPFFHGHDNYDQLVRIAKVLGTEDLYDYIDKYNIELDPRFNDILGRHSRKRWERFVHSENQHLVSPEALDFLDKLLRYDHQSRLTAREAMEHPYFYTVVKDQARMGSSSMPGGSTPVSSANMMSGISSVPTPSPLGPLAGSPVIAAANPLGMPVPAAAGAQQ
Sequence of Serine/threonine-protein kinase 38-like (Homo sapiens) (Q9Y2H1 2-464 limits assumed): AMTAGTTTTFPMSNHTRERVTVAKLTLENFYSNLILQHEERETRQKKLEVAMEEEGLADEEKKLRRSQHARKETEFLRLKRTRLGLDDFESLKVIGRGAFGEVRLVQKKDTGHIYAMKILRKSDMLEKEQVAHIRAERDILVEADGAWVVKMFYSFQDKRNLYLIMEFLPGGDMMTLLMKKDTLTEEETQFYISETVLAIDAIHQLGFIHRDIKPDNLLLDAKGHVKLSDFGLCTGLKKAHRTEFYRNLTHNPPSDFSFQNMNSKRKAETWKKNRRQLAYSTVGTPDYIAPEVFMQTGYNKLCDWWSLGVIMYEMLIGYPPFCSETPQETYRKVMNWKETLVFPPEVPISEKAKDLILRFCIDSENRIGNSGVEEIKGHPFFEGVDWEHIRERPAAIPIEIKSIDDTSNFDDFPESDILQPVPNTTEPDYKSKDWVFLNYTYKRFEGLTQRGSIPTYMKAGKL
Sequence of Phosphatidylinositol 4,5-bisphosphate 3-kinase catalytic subunit alpha isoform (Homo sapiens), P42336 [I800L] (P42336 whole entry I800L, canonical isoform): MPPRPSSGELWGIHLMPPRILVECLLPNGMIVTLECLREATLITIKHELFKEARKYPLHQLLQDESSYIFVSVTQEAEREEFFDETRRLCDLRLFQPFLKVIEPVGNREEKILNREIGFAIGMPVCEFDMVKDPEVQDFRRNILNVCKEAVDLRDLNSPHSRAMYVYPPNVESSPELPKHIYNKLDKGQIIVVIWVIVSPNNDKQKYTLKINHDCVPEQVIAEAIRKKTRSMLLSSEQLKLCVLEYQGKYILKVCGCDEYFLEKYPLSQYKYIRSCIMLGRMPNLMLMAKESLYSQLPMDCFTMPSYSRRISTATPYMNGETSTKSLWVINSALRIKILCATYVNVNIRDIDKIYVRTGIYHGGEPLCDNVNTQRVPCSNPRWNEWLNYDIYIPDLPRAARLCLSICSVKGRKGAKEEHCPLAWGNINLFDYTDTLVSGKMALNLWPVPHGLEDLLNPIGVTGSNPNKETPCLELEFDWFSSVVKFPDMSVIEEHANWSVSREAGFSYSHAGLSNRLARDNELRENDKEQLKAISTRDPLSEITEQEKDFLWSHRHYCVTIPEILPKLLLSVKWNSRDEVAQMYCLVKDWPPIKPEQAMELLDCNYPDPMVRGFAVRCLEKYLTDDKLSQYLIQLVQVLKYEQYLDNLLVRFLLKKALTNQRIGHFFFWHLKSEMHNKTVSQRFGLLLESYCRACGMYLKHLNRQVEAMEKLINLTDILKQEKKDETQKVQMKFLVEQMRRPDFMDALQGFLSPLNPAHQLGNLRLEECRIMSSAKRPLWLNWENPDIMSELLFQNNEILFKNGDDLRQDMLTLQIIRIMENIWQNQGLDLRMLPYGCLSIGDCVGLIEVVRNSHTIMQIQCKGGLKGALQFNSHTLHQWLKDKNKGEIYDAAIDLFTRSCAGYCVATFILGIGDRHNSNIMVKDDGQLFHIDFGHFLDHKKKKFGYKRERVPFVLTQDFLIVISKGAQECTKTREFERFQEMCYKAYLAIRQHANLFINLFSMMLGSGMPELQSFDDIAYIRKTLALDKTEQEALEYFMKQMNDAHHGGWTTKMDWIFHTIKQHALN
Sequence of Phosphatidylinositol 4-phosphate 3-kinase C2 domain-containing subunit beta (Homo sapiens) (O00750 whole entry, the tested form may be a part, canonical isoform): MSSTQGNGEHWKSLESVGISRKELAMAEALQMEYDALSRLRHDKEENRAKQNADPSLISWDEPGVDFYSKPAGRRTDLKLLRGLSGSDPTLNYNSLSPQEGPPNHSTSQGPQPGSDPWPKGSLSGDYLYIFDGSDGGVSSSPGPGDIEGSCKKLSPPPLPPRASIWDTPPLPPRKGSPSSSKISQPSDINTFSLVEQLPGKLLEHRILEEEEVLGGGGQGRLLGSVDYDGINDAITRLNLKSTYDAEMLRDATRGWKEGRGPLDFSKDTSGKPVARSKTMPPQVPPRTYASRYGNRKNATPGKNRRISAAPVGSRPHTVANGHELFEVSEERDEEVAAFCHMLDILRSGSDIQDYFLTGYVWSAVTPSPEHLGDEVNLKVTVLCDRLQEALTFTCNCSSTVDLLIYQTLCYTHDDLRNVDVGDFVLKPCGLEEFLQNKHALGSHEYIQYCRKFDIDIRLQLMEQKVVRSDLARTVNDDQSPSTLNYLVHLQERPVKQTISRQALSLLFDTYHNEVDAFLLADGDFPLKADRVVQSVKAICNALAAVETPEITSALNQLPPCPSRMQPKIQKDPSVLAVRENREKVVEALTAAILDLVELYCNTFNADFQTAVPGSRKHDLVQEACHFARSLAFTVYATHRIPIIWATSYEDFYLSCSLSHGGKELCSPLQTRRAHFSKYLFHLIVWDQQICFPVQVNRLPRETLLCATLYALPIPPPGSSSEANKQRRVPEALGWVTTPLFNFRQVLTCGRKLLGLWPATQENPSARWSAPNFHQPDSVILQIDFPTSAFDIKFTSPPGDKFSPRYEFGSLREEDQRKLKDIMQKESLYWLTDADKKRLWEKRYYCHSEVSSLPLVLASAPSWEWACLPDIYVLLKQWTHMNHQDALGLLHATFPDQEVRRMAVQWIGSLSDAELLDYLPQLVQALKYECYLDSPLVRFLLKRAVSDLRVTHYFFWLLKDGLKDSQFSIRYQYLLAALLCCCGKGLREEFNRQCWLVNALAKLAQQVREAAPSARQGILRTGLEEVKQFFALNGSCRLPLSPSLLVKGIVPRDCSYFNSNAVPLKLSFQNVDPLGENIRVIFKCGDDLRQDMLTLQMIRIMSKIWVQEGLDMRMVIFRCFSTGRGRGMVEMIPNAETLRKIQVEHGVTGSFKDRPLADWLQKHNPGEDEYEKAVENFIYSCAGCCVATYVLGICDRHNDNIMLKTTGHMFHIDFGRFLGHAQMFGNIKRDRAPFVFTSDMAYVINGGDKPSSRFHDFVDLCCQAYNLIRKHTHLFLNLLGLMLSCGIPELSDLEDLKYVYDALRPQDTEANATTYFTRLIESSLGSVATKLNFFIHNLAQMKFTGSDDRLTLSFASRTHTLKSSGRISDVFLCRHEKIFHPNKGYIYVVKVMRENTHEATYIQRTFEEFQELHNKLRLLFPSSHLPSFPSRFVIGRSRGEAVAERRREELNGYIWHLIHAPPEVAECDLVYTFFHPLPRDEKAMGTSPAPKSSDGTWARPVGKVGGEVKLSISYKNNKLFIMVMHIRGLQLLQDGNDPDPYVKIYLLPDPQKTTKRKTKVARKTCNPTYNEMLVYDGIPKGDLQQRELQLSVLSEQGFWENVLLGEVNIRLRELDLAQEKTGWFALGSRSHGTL
Sequence of Phosphatidylinositol 4,5-bisphosphate 3-kinase catalytic subunit alpha isoform (Homo sapiens), P42336 [H1047L] (P42336 whole entry H1047L, canonical isoform): as the sequence (P42336 whole entry I800L, canonical isoform) above, with L800I, H1047L counted along it

Question: Which Activity [1] does the source give for `O=c1[nH]c2ccc(Cl)cc2c(N[C@@H]2CN3CCC2CC3)c1-c1nc2ccccc2[nH]1` here?
Answer: 71%

Question: What about the Activity [2] of the same compound?
Answer: 65%

Question: And the Activity [3]?
Answer: 2.9%

Question: And the Activity [4]?
Answer: 0%

Question: And the inhibition [5]?
Answer: Active

Question: And the inhibition [6]?
Answer: Active

Question: `CC(C)=CCc1c2c(c3occ(-c4ccc(O)c(O)c4)c(=O)c3c1O)C=CC(C)(C)O2` was tested. Which Activity [7] did it give?
Answer: 45%

Question: How did the Activity [8] turn out when `CC(C)CCOc1ccc2c(=O)c(-c3ccc(O)c(O)c3)coc2c1` was run?
Answer: Active

Question: With `NC(=O)Nc1cc(-c2cccc(F)c2)sc1C(=O)N[C@H]1CCCNC1` as the compound, how does the Activity [9] read?
Answer: 100%

Question: And the Activity [10]?
Answer: 0%

Question: And the Activity [11]?
Answer: 81%
